# Patent US20040002842A1, “Methods and systems for analyzing complex biological systems” (priority 2001, published 2004)
# Experiments:
# [1] = test system: Arabidopsis thaliana plants; experiment: SOA1 gene expression analysis (60mer microarray, 6200 genes) of herbicide-treated tissue; conditions: SOA1 profiles
# [2] = test system: Arabidopsis thaliana plants; experiment: SOA1 phenotypic analysis of herbicide-treated plants (incl. MIC/Tmic); assay type: in vivo; conditions: herbicide-treated plants
# [3] = test system: Saccharomyces cerevisiae wild type strain BY4743; experiment: AF1 yeast gene expression analysis (microarray, KEGG pathway mapping); assay type: cell-based
# Protocol: Saccharomyces cerevisiae wild type strain BY4743 was purchased from American Type Culture Center (ATCC, Manassas, Va.). The yeast strain was grown in YPD or SD media. H. […] The cultures started from fresh single colonies were grown in 1.0 ml YPD overnight at 30° C. […] The OD600 was adjusted to 1.0 with YPD media, then 2.0 ml of each was inoculated into three 250 ml flasks, each containing 50 ml of SD media. […] The cells were kept growing for another two hours, then collected by centrifugation at 4000 rpm for 5 minutes at 4° C. Pellets were washed once with ice-cold water, then were lyophilized overnight at 4° C. […] Tubes were vortexed for 30 seconds, then incubated for 10 minutes at room temperature (RT). […] Tubes were incubated for 10 minutes at RT. Samples were centrifuged for 20 minutes as before. Pellets were washed with 400 μl 70% ethanol and centrifuged for 10 minutes as before. The pellet was then dissolved in 100 μl nuclease-free water. RNA quality was determined using the Bioanalyzer 2100 and the RNA 6000 assay (Agilent Technologies, Palo Alto, Calif.) according to manufacturer's instructions. RNA concentrations were determined spectrophotometrically by measuring the absorption at 260 nm in an Ultrospec 2000 (Pharmacia Biotech, Piscataway, N.J.). […] Labeled cRNAs were evaluated using the RNA 6000 assay on the Agilent Bioanalyzer 2100. Labeled cRNA concentrations were determined spectrophotometrically by measuring the absorption at 260 nm in an Ultrospec 2000 (Pharmacia Biotech, Piscataway, N.J.). […] Each pair of samples to be hybridized were independently labeled and hybridized utilizing a fluor reversal for a total of two hybridizations per sample pair. The microarrays were scanned simultaneously in the Cy3 and Cy5 channels with Agilent's 48-slide, Dual Laser DNA Microarray Scanner (Agilent Technologies, Palo Alto, Calif.) at 10 μm resolution using default settings. Image Analysis Software (Version A.4.0.45, Agilent Technologies, Palo Alto, Calif.) was used for image analysis. Each feature was determined from an array's associated pattern file and a detection algorithm. Intensity values for each feature were determined after subtracting background derived from an average of negative control features. Features with unusual pixel intensity statistics (e.g., high non-uniformity, saturation in either channel, and the like) were excluded from downstream analyses. Data was loaded into the Rosetta RESOLVER database (Rosetta Inpharmatics Inc., Kirkland, Wash.) for storage and analysis. Data was evaluated after combining results from fluor reversal replicate hybridizations. The annotation of yeast ORFs was obtained from Proteome BIOKNOWLEDGE Library (Incyte Genomics, Palo Alto, Calif.). In AF1, two different technologies were utilized: gene expression analysis (for examination of mRNA expression) and metabolite analysis. […] As noted previously, existing metabolic databases may be helpful in practicing the methods and systems of the present invention, but many databases include limitations that make their use in data analysis and pathway mapping less than straightforward. […] This caveat to KEGG makes it difficult to pinpoint the correct pathway when attempting to link a gene to a specific pathway. The pathway score indicates how meaningful the mapping is, or how likely it is to be correctly indicative of the pathway involved in the perturbation under examination. The method provides a pathway score based on perturbation levels of genes and/or compounds and the information content of each gene and/or compound in the pathway, i.e., a pathway score indicates the extent to which other pathways are mapped to a gene/compound. For example, imagine that two genes are perturbed in a particular experiment.
# [4] = test system: Saccharomyces cerevisiae wild type strain BY4743; experiment: AF1 yeast metabolite analysis by GC-MS and LC-MS; assay type: cell-based; conditions: for # Compounds perturbed by treatment: 2×MIC, two hours
# [5] = test system: Saccharomyces cerevisiae wild type strain BY4743; experiment: AF1 combined gene expression and metabolite data (reactions, pathways, cluster analysis); assay type: cell-based
# Excerpt: The data were then combined to determine the number of reactions showing an enzyme and at least one compound perturbed, and to determine the number of pathways having at least one enzyme and one perturbed compound perturbed. The results of the analysis are represented in Tables 16 and 17, and were difficult to interpret, illustrating that the ability to draw conclusions from compound mapping to pathways is limited when absent additional data. […] A coherent data set was created from data obtained from the four above-described drug compounds. The data were reduced by using principle components analysis and cluster analysis.
structure (smiles),measurement,setting,value
COC(=O)c1cc(Oc2ccc(Cl)cc2Cl)ccc1[N+](=O)[O-] [Bifenox],gene expression profile correlation to acifluorfen (r),[1],0.151
same,characteristic symptoms (morphological phenotype),[2],Necrotic leaf flecks
CCc1cccc(C)c1N(C(=O)CCl)C(C)COC (stereo not drawn) [Metolachlor],gene expression profile correlation with bifenox (r),[1],0.499
same,gene expression profile correlation with diquat (r),[1],0.569
CC[C@@H]([C@H](C)O)n1ncn(-c2ccc(N3CCN(c4ccc(OC[C@@H]5CO[C@@](Cn6cncn6)(c6ccc(F)cc6F)C5)cc4)CC3)cc2)c1=O [Posaconazole],# Transcripts perturbed by treatment,"[3]; P < 0.05, 2×MIC, two hours",690
same,"Number of Pathways Affected by at Least One Gene, # Pathways","[3]; p < 0.05, KEGG mapping",69
same,# Compounds perturbed by treatment,[4]; P < 0.05,3
same,# Compounds perturbed by treatment,[4]; P < 0.1,4
same,Fold Change: alanine,[4]; Platform GC,1.035
same,Fold Change: asparagine,[4]; Platform GC,0.145
same,Fold Change: aspartic acid,[4]; Platform GC,−0.071
same,Fold Change: campesterol,[4]; Platform GC,0
same,Fold Change: desmosterol,[4]; Platform GC,0
same,Fold Change: disaccaride1,[4]; Platform GC,0.04733
same,Fold Change: disaccaride2,[4]; Platform GC,0.313
same,Fold Change: disaccaride3,[4]; Platform GC,0.3407
same,Fold Change: ergosterol,[4]; Platform GC,0.808
same,Fold Change: fucosterol,[4]; Platform GC,6.722
same,Fold Change: glutamine,[4]; Platform GC,0.6439
same,Fold Change: glycanopyrose,[4]; Platform GC,1.594
same,Fold Change: glycerol,[4]; Platform GC,0.1873
same,Fold Change: glycine,[4]; Platform GC,0.08267
same,Fold Change: hexadecanoic acid,[4]; Platform GC,−0.01867
same,Fold Change: iso citric acid,[4]; Platform GC,0.4
same,Fold Change: isoleucine,[4]; Platform GC,0.1023
same,Fold Change: lanosterol,[4]; Platform GC,7.464
same,Fold Change: leucine,[4]; Platform GC,0.334
same,Fold Change: lysine,[4]; Platform GC,0.1586
same,Fold Change: malic acid,[4]; Platform GC,0.2942
same,Fold Change: 2-ketobutyric acid,[4]; Platform nLC,−0.9992
same,Fold Change: 2-ketoglutaric,[4]; Platform nLC,11.33
same,Fold Change: 3-indolylacetonitri,[4]; Platform nLC,−0.9998
same,Fold Change: 4-methylcatechol,[4]; Platform nLC,0
same,Fold Change: 4aminobutyrate/dimg,[4]; Platform nLC,−0.008939
same,Fold Change: 5hydroxyLtryptophan,[4]; Platform nLC,0
same,Fold Change: 6-benzylaminopurine,[4]; Platform nLC,0
same,Fold Change: DLaminoadipic acid,[4]; Platform nLC,−0.9935
same,Fold Change: abscisic acid,[4]; Platform nLC,0
same,Fold Change: aconitic acid,[4]; Platform nLC,1.874
same,Fold Change: adenine,[4]; Platform nLC,0
same,Fold Change: adenosine,[4]; Platform nLC,128.3
same,Fold Change: alanine,[4]; Platform nLC,0.1091
same,Fold Change: allantoic acid,[4]; Platform nLC,0.3321
same,Fold Change: allantoin,[4]; Platform nLC,5.97
same,Fold Change: anthranilic acid,[4]; Platform nLC,0
same,Fold Change: arginine,[4]; Platform nLC,0.1707
same,Fold Change: argininosuccinate,[4]; Platform nLC,318.3
same,Fold Change: asparagine,[4]; Platform nLC,0.006865
same,Fold Change: aspartic,[4]; Platform nLC,0.305
same,Fold Change: benzoic acid,[4]; Platform nLC,0
same,Fold Change: biotin,[4]; Platform nLC,−0.9992
same,Fold Change: caffeic acid,[4]; Platform nLC,−0.49
same,Fold Change: catechol,[4]; Platform nLC,0
same,Fold Change: cinnamic acid,[4]; Platform nLC,0
same,Fold Change: citricanoic/itaconi,[4]; Platform nLC,0
same,Fold Change: citrulline,[4]; Platform nLC,1160
same,Fold Change: coumaric acid,[4]; Platform nLC,0
same,Fold Change: cytidine,[4]; Platform nLC,−0.9986
same,Fold Change: cytosine,[4]; Platform nLC,0
same,Fold Change: decanoic acid,[4]; Platform nLC,0.1263
same,Fold Change: diaminopimelic acid,[4]; Platform nLC,0
same,Fold Change: dihydrofolic acid,[4]; Platform nLC,0
same,Fold Change: estrone,[4]; Platform nLC,0
same,Fold Change: farnesol,[4]; Platform nLC,0
same,Fold Change: folic acid,[4]; Platform nLC,0
same,Fold Change: fumaric/3m2oxobutan,[4]; Platform nLC,−0.9997
same,Fold Change: gallic acid,[4]; Platform nLC,0.4414
same,Fold Change: gibberellic,[4]; Platform nLC,0
same,Fold Change: glucosamine6PO4,[4]; Platform nLC,−0.9951
same,Fold Change: glutamic/acetylseri,[4]; Platform nLC,0.3222
same,Fold Change: glutamine/lysine,[4]; Platform nLC,0.09814
same,Fold Change: guanine,[4]; Platform nLC,0
same,Fold Change: guanosine,[4]; Platform nLC,−0.993
same,Fold Change: histidine,[4]; Platform nLC,0
same,Fold Change: homogentisic/uric,[4]; Platform nLC,0
same,Fold Change: hydrocortisone,[4]; Platform nLC,0
same,Fold Change: hypoxanthine,[4]; Platform nLC,0.1751
same,Fold Change: indole3pyruvic acid,[4]; Platform nLC,0
same,Fold Change: inostol/glucos/sorb,[4]; Platform nLC,−0.493
same,Fold Change: isocitric/citric/qu,[4]; Platform nLC,1.711
same,Fold Change: jasmonic acid,[4]; Platform nLC,0
same,Fold Change: kinetin,[4]; Platform nLC,0
same,Fold Change: lactic acid,[4]; Platform nLC,0.5987
same,Fold Change: lauric acid,[4]; Platform nLC,0.9833
same,Fold Change: leucine/isoleucine/,[4]; Platform nLC,0.03158
same,Fold Change: luteolin,[4]; Platform nLC,0
same,Fold Change: malic acid,[4]; Platform nLC,0.3101
same,Fold Change: malonic acid,[4]; Platform nLC,0
same,Fold Change: menthol*,[4]; Platform nLC,0.08121
same,Fold Change: methionine,[4]; Platform nLC,0
same,Fold Change: 4-aminobenzoic acid,[4]; Platform pLC,0
same,Fold Change: 4-methylcatechol,[4]; Platform pLC,0
same,Fold Change: 4ambutyrate/dimglyc,[4]; Platform pLC,31.37
same,Fold Change: 5hydroxyLtryptophan,[4]; Platform pLC,0
same,Fold Change: 6benzylaminopurine,[4]; Platform pLC,0
same,Fold Change: DL-aminoadipic acid,[4]; Platform pLC,1.685
same,Fold Change: abscisic acid,[4]; Platform pLC,0
same,Fold Change: adenine,[4]; Platform pLC,−0.0145
same,Fold Change: adenosine,[4]; Platform pLC,0
same,Fold Change: alanine/sarcosine,[4]; Platform pLC,0.1013
same,Fold Change: allantoic acid,[4]; Platform pLC,0
same,Fold Change: anthranilic acid,[4]; Platform pLC,0
same,Fold Change: arginine,[4]; Platform pLC,0.03383
same,Fold Change: argininosuccinate,[4]; Platform pLC,0
same,Fold Change: asparagine,[4]; Platform pLC,0.4302
same,Fold Change: aspartic acid,[4]; Platform pLC,0.3626
same,Fold Change: biotin,[4]; Platform pLC,0
same,Fold Change: caffeine,[4]; Platform pLC,0
same,Fold Change: citric acid TME,[4]; Platform pLC,0
same,Fold Change: citrulline,[4]; Platform pLC,0.1011
same,Fold Change: cytidine,[4]; Platform pLC,0
same,Fold Change: cytosine,[4]; Platform pLC,1135
same,Fold Change: diaminopimelic acid,[4]; Platform pLC,0
same,Fold Change: dihydrofolic acid,[4]; Platform pLC,0
same,Fold Change: dipicolinic acid,[4]; Platform pLC,0
same,Fold Change: folic acid,[4]; Platform pLC,0
same,Fold Change: glucosamine,[4]; Platform pLC,0
same,Fold Change: glucosamine6PO4,[4]; Platform pLC,0
same,Fold Change: glutamate,[4]; Platform pLC,0.3769
same,Fold Change: glutamine/lysine,[4]; Platform pLC,0.303
same,Fold Change: glutathione,[4]; Platform pLC,0.0101
same,Fold Change: guanosine,[4]; Platform pLC,0.04655
same,Fold Change: histidine,[4]; Platform pLC,0
same,Fold Change: hydrocortisone,[4]; Platform pLC,0
same,Fold Change: hypoxanthine,[4]; Platform pLC,0.135
same,Fold Change: itaconic acid dimes,[4]; Platform pLC,0
same,Fold Change: kinetin,[4]; Platform pLC,0
same,Fold Change: leucine/isoleucine/,[4]; Platform pLC,0.04937
same,Fold Change: luteolin,[4]; Platform pLC,0
same,Fold Change: mannitol,[4]; Platform pLC,0.3919
same,Fold Change: methionine,[4]; Platform pLC,−0.3997
same,"Number of Reactions Having an Enzyme and at Least One Compound Perturbed, # Reactions",[5],0
